One assay addresses hCA IX (Homo sapiens, UniProt Q16790). Briefly: biochemical. Conditions: for IC50: IC50 (μM) ± SEM CA IX, ± SEM.
For another assay, the target named is hCA II (Homo sapiens, UniProt P00918). Briefly: Carbonic anhydrase II inhibition activity. In kind it is biochemical.
The target in the next assay is hCA XII (Homo sapiens, UniProt O43570). Briefly: Carbonic anhydrase XII inhibition activity. Format: biochemical.

The results in this text go back to PMC8979346 (RSC Advances, 2022).

Each structure is given as a SMILES string.

hCA XII, sequence (O43570 25-354): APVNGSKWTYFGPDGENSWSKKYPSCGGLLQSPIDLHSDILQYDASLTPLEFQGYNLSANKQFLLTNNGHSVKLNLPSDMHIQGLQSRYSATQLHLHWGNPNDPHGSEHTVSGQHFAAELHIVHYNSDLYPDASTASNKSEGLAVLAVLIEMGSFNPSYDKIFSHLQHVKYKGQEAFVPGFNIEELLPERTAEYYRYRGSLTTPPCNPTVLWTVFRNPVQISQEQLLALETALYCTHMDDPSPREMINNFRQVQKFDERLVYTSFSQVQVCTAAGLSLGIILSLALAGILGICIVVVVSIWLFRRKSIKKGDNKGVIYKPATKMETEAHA

What is called IC50 is the point on the concentration scale where inhibition reaches its midpoint. Low values mean greater potency in that assay, high ones weaker potency in that assay. For the molecule `Cc1ccc(S(=O)(=O)Nc2ccccc2)cc1` [Compound 3a, 4-Methyl-N-phenylbenzenesulfonamide], the IC50 on hCA IX (CA IX) stood at 1.2 ± 0.75 µM; against hCA II it was 1300 ± 510 nM.
In the case of `Cc1ccc(S(=O)(=O)Nc2cc(C)ccc2C)cc1` [Compound 3b, N-(2,5-Dimethylphenyl)-4-methylbenzenesulfonamide], the figures for the IC50 at hCA IX (CA IX) and against hCA XII were 1.65 ± 1.3 µM and 1030 ± 230 nM, respectively.
As to `Cc1ccc(S(=O)(=O)Nc2c(C)cccc2C)cc1` [Compound 3c, N-(2,6-Dimethylphenyl)-4-methylbenzenesulfonamide], the half-maximal inhibitory concentration (IC50) against hCA IX (CA IX) is 1.06 ± 0.63 µM; against hCA II, 1550 ± 800 nM; against hCA XII, 700 ± 200 nM.
The inhibition is the drop in the measured response relative to a control, in per cent. `CCN(CC)c1ccc(NS(=O)(=O)c2ccc(C)cc2)cc1` [Compound 3e, N-(4-(Diethylamino)phenyl)-4-methylbenzenesulfonamide]: the “% inhibition CA IX” value on hCA IX (CA IX, at 100 μM) was determined as 31%. Besides, the inhibition at 100 µM on hCA IX (read-out: % inhibition CA IX, CA IX, at 100 μM) is < 31%. This molecule also yielded an IC50 on hCA XII of 630 ± 140 nM.
Turning to `Cc1ccc(S(=O)(=O)NCc2ccccc2)cc1` [Compound 3f, N-benzyl-4-methylbenzenesulfonamide], the results for the IC50 on hCA IX (CA IX), on hCA II and against hCA XII were 1.98 ± 0.61 µM, 1070 ± 820 nM and 860 ± 280 nM, respectively.
The corresponding values for `Cc1ccc(S(=O)(=O)NC(c2ccccc2)c2ccccc2)cc1` [Compound 3g, N-Benzhydryl-4-methylbenzenesulfonamide] are 0.78 ± 0.83 µM, 863 ± 540 nM and 1300 ± 780 nM.
On to `Cc1ccc(S(=O)(=O)NNc2ccccc2)cc1` [Compound 3h, 4-Methyl-N′-phenylbenzenesulfonohydrazide], for which the results for the IC50 against hCA IX (CA IX), on hCA II and at hCA XII were 0.484 ± 1.4 µM, 520 ± 440 nM and 1080 ± 620 nM, respectively.
Turning to `COc1ccc(S(=O)(=O)NNc2ccccc2)cc1` [Compound 3i, 4-Methoxy-N′-phenylbenzenesulfonohydrazide], 2760 ± 1100 nM corresponded to half-maximal inhibition at hCA II (IC50). In addition, the “% inhibition CA XII” value on hCA XII (CA XII, at 100 μM) worked out at 27%.
`Cc1ccc(S(=O)(=O)Nc2ccc(C)c(C)c2)cc1` [Compound 3j, N-(3,4-Dimethylphenyl)-4-methylbenzenesulfonamide]: the figures for the IC50 against hCA IX (CA IX), on hCA II and at hCA XII were 0.62 ± 0.2 µM, 2500 ± 1500 nM and 1120 ± 1000 nM, respectively.
For the molecule `COc1ccc(S(=O)(=O)Nc2ccccc2)cc1` [Compound 3k, 4-Methoxy-N-phenylbenzenesulfonamide], the figures for the IC50 against hCA II and on hCA XII were 1740 ± 540 nM and 1140 ± 370 nM, respectively.
As to `COc1ccc(CCNS(=O)(=O)c2ccc(C)cc2)cc1OC` [Compound 3l, N-(3,4-Dimethoxyphenethyl)-4-methylbenzenesulfonamide], the IC50 was found to be 0.764 ± 0.54 µM against hCA IX (CA IX) and 1170 ± 1000 nM at hCA XII. The “% inhibition CA II” value on hCA II (CA II, at 100 μM) is 32%. Besides, the inhibition at 100 µM on hCA II (read-out: % inhibition CA II, CA II, at 100 μM) was < 50%.
Take `COc1ccc(S(=O)(=O)NC(c2ccccc2)c2ccccc2)cc1` [Compound 3m, N-Benzhydryl-4-methoxybenzenesulfonamide]: the IC50 was 507 ± 400 nM against hCA II and 1400 ± 570 nM on hCA XII.
